Data on 19 molecules can be found in ChEMBL document CHEMBL1201862, “PubChem BioAssay data set” (2004).

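Cultured in 96-well plates, cells were exposed to test compound for 48 hours across five concentrations. At the GI50, growth is halved.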 Calls of active or inactive are those of the source. Rule as the data show it: active = GI50 up to about 1.1 µM and inactive = higher. Bounds are passed on as bounds.

Test systems include DLD-1; DMS-114; KM-20L2; LXFL 529; RXF 631; SNB-78; XF498; DMS-273; HOP-18.
What all share (test): DTP human tumour cell line panel, 48 h

A word on the GI50: it is the concentration that inhibits growth by half. As for `CC(=O)OC1(C#N)CC2OC1C1NC21` (centres undefined), the GI50 in the test with DLD-1, with DMS-114, in the test on KM-20L2, in the test with LXFL 529, in the test with RXF 631 and in the test on SNB-78 was > 100 µM (inactive) each time. Further, the GI50 with XF498 is > 100 µM (inactive).

Take `N#CC(C(=N/O)/C(=N/O)C(C#N)c1ccc(Cl)cc1)c1ccc(Cl)cc1` (centres undefined): the GI50 in the test on DLD-1 was > 100 µM (inactive); with DMS-114 it was > 100 µM (inactive); with DMS-273, > 100 µM (inactive); in the test on HOP-18, 43.6 µM (inactive); in the test on KM-20L2, > 100 µM (inactive); in the test on LXFL 529, 30.4 µM (inactive). For the same molecule, the GI50 with SNB-78 was 23.4 µM (inactive); with XF498, > 100 µM (inactive).

With `Cc1cc(O)nc(NNC(C#N)c2ccc([N+](=O)[O-])cc2)n1` (centres undefined), the GI50 is > 100 µM (inactive) in the test with DLD-1; 45.6 µM (inactive) in the test on DMS-114; 91.4 µM (inactive) in the test on DMS-273; > 100 µM (inactive) in the test on HOP-18; > 100 µM (inactive) in the test with KM-20L2; > 100 µM (inactive) with LXFL 529. In addition, in the test on SNB-78, the GI50 is 42.6 µM (inactive).

For the molecule `O=C(/C=C/c1cccc([N+](=O)[O-])c1)c1cccnc1`, the GI50 in the test on DLD-1 was 20.3 µM (inactive); with DMS-114, 22.6 µM (inactive); with DMS-273 it was 25.3 µM (inactive); in the test with HOP-18, 2.06 µM (inactive); with KM-20L2 it was 27.7 µM (inactive); in the test with LXFL 529, 21 µM (inactive). Besides, the GI50 in the test with SNB-78 is 41.2 µM (inactive); in the test with XF498 it was 35.8 µM (inactive).

Turning to `NCc1ccc(O)c(O)c1O`, the GI50 with DLD-1 was 20.3 µM (inactive); with DMS-114 it was 18.8 µM (inactive); in the test on DMS-273 it was 16.9 µM (inactive); in the test on HOP-18 it was > 56.8 µM (inactive); with KM-20L2 it was 30.2 µM (inactive); in the test on LXFL 529, 16.8 µM (inactive). In addition, the values for the GI50 with SNB-78 and in the test on XF498 were > 65.9 µM (inactive) and 26.9 µM (inactive), respectively.

Turning to `Cc1ccc(S(=O)(=O)NC2CCCCO2)cc1` (centres undefined), the GI50 with DLD-1, in the test with DMS-114, in the test with DMS-273, in the test on HOP-18, with KM-20L2 and in the test on LXFL 529 was > 100 µM (inactive) throughout. The GI50 in the test with SNB-78 and with XF498 was > 100 µM (inactive) in each case.

For the molecule `O=C(NC1CCC[C@H]1OC(=O)c1ccccc1)c1ccccc1` (some centres undefined), the GI50 is 24.4 µM (inactive) with DLD-1; > 10 µM (inactive) with DMS-114; 95.7 µM (inactive) with DMS-273; > 10 µM (inactive) with KM-20L2; 66.8 µM (inactive) with RXF 631; > 100 µM (inactive) with SNB-78. Further, the GI50 with XF498 is 35.3 µM (inactive).

Turning to `O=C1NC(=O)C2C1N(Cc1ccccc1)C(=O)N2Cc1ccccc1` (centres undefined), the GI50 in the test with DLD-1, in the test on DMS-114, with KM-20L2, with LXFL 529, with RXF 631 and with SNB-78 was > 100 µM (inactive) each time. Further, in the test on XF498, the GI50 was > 100 µM (inactive).

Consider `COc1cc2c(c(OC)c1OC)-c1ccc(SC)c(=O)cc1[C@@H](NC(=O)c1ccc([N+](=O)[O-])cc1)CC2`, for which the GI50 in the test with DLD-1 is < 0.0025 µM (active); with DMS-114 it was < 0.0025 µM (active); with DMS-273 it was < 0.0025 µM (active); with KM-20L2, < 0.0025 µM (active); with RXF 631, < 0.01 µM (active); in the test on SNB-78, < 0.0025 µM (active). The GI50 in the test on XF498 was 0.00746 µM (active).

For `COC1=CC(=O)C2C(C1=O)[C@@H]1c3ccccc3OC[C@H]21` (some centres undefined), the GI50 in the test with DLD-1, in the test with DMS-114, in the test on DMS-273, in the test on HOP-18, in the test with KM-20L2 and in the test with LXFL 529 was > 100 µM (inactive) in each case. Moreover, the GI50 with SNB-78 was > 100 µM (inactive).

Consider `CN(C)C1(C#N)CCC2(CC1)OCCO2`, for which the GI50 with DMS-273, in the test with KM-20L2 and in the test with SNB-78 was > 100 µM (inactive) in each case.

Turning to `CC1C(=O)CCC1C(Sc1ccccc1)(Sc1ccccc1)Sc1ccccc1` (centres undefined), the GI50 with DLD-1 was 28.8 µM (inactive); in the test with DMS-114, 13.8 µM (inactive); in the test with DMS-273 it was 23.3 µM (inactive); in the test with LXFL 529 it was 17.1 µM (inactive); in the test with RXF 631 it was 25.9 µM (inactive); with SNB-78, 37.8 µM (inactive). For the same molecule, the GI50 with XF498 was 24.7 µM (inactive).

In the case of `Cn1cnc([N+](=O)[O-])c1Sc1nc2cccnc2s1`, the GI50 was 12.8 µM (inactive) with DLD-1; 14.7 µM (inactive) in the test with DMS-114; 16.7 µM (inactive) in the test on DMS-273; 16.9 µM (inactive) in the test on KM-20L2; 12.4 µM (inactive) with LXFL 529; 14.6 µM (inactive) with RXF 631. The values for the GI50 in the test with SNB-78 and in the test on XF498 were 46.9 µM (inactive) and 21 µM (inactive), respectively.

Consider `CCc1ccccc1NC(=O)C1=C(C)NC(C)=C(C(=O)Nc2ccccc2CC)C1c1ccc2c(c1)OCO2`, for which the GI50 in the test with DLD-1 is 22.7 µM (inactive); in the test with DMS-114, 22.9 µM (inactive); in the test with KM-20L2 it was > 10 µM (inactive); with LXFL 529 it was 31.3 µM (inactive); in the test with SNB-78 it was 34 µM (inactive); in the test on XF498, 23 µM (inactive).

Turning to `CN[C@H](C)[C@@H](OC)c1ccccc1`, the GI50 with DLD-1, in the test with DMS-114, with DMS-273, in the test with HOP-18, in the test on KM-20L2 and in the test with LXFL 529 was > 100 µM (inactive) in each case. Moreover, the GI50 with SNB-78 and in the test on XF498 was > 100 µM (inactive) throughout.

For `N=C(N)NS(=O)(=O)c1ccc(NCc2c3ccccc3[n+]([O-])c3ccccc23)cc1`, the GI50 in the test on DLD-1 is 28.2 µM (inactive); with DMS-114, 10.4 µM (inactive); with DMS-273, 9.35 µM (inactive); in the test on HOP-18, 8.63 µM (inactive); in the test on KM-20L2, 30.1 µM (inactive); in the test on LXFL 529 it was 17.1 µM (inactive). For the same molecule, the GI50 in the test on SNB-78 was 31.6 µM (inactive).

For `Cc1ccc(C)c(NC(=O)c2cccc([N+](=O)[O-])c2O)c1`, the GI50 in the test on DLD-1 was 27.8 µM (inactive); in the test on DMS-114 it was 15.1 µM (inactive); in the test with DMS-273, 24.1 µM (inactive); with HOP-18, 5.7 µM (inactive); in the test on KM-20L2 it was 24.6 µM (inactive); with LXFL 529, 35.5 µM (inactive). In addition, the GI50 is 14.1 µM (inactive) in the test with SNB-78 and 23.2 µM (inactive) in the test with XF498.

On to `CC(=O)OCC(OC(C)=O)C(OC(C)=O)C(OC(C)=O)C(=O)CNn1c(-c2ccccc2Cl)nc2ccc(Br)cc2c1=O` (centres undefined), for which the GI50 is 30.4 µM (inactive) in the test on DMS-114; 56.5 µM (inactive) in the test on DMS-273; > 100 µM (inactive) with KM-20L2; 36.9 µM (inactive) in the test on LXFL 529; 65.6 µM (inactive) in the test with SNB-78; 15.5 µM (inactive) in the test with XF498.

As to `O=C(CNc1nncs1)NO`, the GI50 with DLD-1 is > 100 µM (inactive); in the test on DMS-114 it was 54.3 µM (inactive); in the test on DMS-273, > 100 µM (inactive); with HOP-18, > 100 µM (inactive); with KM-20L2 it was > 100 µM (inactive); in the test with LXFL 529 it was > 100 µM (inactive). In addition, the GI50 in the test on SNB-78 was > 100 µM (inactive).
